Assay [1] relates to substance P induced paw swelling. Kind of assay: Substance P induced acute paw inflammation. Format: in vivo, rat (Lewis). Particulars: pre-treated with 3 mg/kg. As to the method: In one such model, the acute paw inflammation model, rats were treated with test compounds one hour prior to plantar injection of a 50 μl volume of a phlogistic. Animals were sacrificed and paw weights were determined at a prescribed time interval following the plantar injections. When 1% carrageenan was used as the phlogistic, the time interval between injection and sacrifice was 3 hours. When serotonin (5-hydroxytryptamine (5-HT)) was used, as the phlogistic agent the time interval was one hour. When substance P was used, the time interval was 30 minutes. The acute paw inflammation model is described in more detail in Example 3.
Male Lewis rats (Charles River or Harlan Sprague Dawley) weighing 180 to 250 g were used in all acute inflammatory studies. Animals were maintained on a 12:12 hour light:dark cycle and were allowed ad lib access for food (Purina lab chow) and water. Experimental groups consisted of 5 or 6 rats.
Acute paw swelling was induced by the intraplantar injection of phlogistic agents into the left hind paw, with the uninjected right hind paw serving as the comparative control. […]

Assay [2] relates to carrageenan induced paw swelling. Kind of assay: Carrageenan edema model (acute paw inflammation). The class given is in vivo, rat (Lewis). As to conditions: Rattus norvegicus, ip; read-out: ED50, inhibition of carrageenan induced paw swelling. Background: The carrageenan paw model is a standard test of acute inflammation.

By ED50 is commonly meant the dose that gives a 50% effect, or the effect in half of the subjects. Consider `CCCN1C[C@H](CSC)C[C@@H]2c3cccc4c3c(cn4C(C)C)C[C@H]21` [Compound 1, D-1-isopropyl-6-n-propyl-8β-methylthiomethyl ergoline], for which the “increase in paw weight after substance P” value in assay [1] (Substance P 0.01 mg/ml, untreated 174 ±18 mg) amounted to 38 ± 11 mg. In assay [1] (p<0.05), the “reduction of substance P induced increase in paw weight” value is given as 49%. Also, the median effective dose (ED50) in assay [2] was approximately 0.3 mg/kg.

The values are drawn from patent US5416090A, “Method of treating inflammation” (priority 1992, dated 1995).
